We go through one compound from US11535939B2, “Surface treatment method for copper or copper alloy, surface treatment liquid for sterilizing copper or copper alloy, and sterilization method using copper or copper alloy treated by said method” (NATIONAL INSTITUTE FOR MATERIALS SCIENCE, priority 2017, dated 2022).

The test system of this assay is Escherichia coli (E. coli). In words: Simple test for antimicrobial activity using E. coli based on JIS Z2801 (0.9% NaCl, fluorescent dye viability). The class given is cell-based. The conditions noted are these: Example 5, FIG. 8, Cu sample piece, 5 minutes after seeding. The source says:
In this Example, effects of GSH, which is a biological reducing substance, on antimicrobial activity of copper and copper alloys were studied by a simple test for antimicrobial activity using E. coli based on the test for antimicrobial activity specified in JIS Z2801. As shown in FIG. 6(a), first, a copper (Cu) sample piece (15 mm square) was placed on the bottom surface of a glass container. Next, on the upper surface of the sample piece, 0.9% NaCl (−GSH) not containing GSH as a solvent or a 0.9% NaCl solution (+GSH) containing GSH at a concentration of 1.0 mM as a solvent was used to seed about 1.0×10^6 cells/50 μL of E. coli. This bacterial suspension was covered with a polyethylene (PE) sheet so as not to dry the bacterial suspension. Then, the glass container was placed under static culture condition of 35±1° C. The PE sheet was removed 0 minute (immediately after seeding), 5 minutes, and 10 minutes after seeding of E. coli, and 1 mL of 0.9% NaCl+0.1 mM EDTA-2Na was added to the bacterial suspension, and the bacterial suspension was collected by pipetting. A fluorescent dye was added to the collected bacterial suspension, and viability of E. coli was determined by measuring fluorescence intensity. In order to avoid a contact between the back surface of the Cu sample piece and the solution when collecting E. coli, the back surface of the Cu sample piece was coated with a thin silicone sheet in advance. […] GSH was added at a concentration of 0 mM (no addition), 1.0 mM, 2.0 mM, and 10.0 mM, and the results are shown in this order from the left. In FIG. 8, the longitudinal axis represents a ratio of bacterial viability (relative viability) normalized to the bacterial viability in the control test as 1. […] Note that the time from seeding of E. coli to collection of a bacterial suspension was set to 5 minutes.

`N[C@@H](CCC(=O)N[C@@H](CS)C(=O)NCC(=O)O)C(=O)O` [GSH, Reduced glutathione]: the “bacterial viability (relative viability)” value by setting is: (GSH 1.0 mM) “decreased more than a case without GSH”; (GSH 2.0 mM) “equivalent or greater than the result without GSH”; (GSH 10.0 mM) “equivalent or greater than the result without GSH”.
